Measurements published in US10040791B2, “Isoxazole derivative as mutant isocitrate dehydrogenase 1 inhibitor” (Daiichi Sankyo Company, Limited, priority 2014, dated 2018).

Assays:
IDH1R132C = IDH1R132C (Homo sapiens (Human), UniProt O75874, R132C); assay: Inhibitory activity against IDH1R132C enzyme (NADPH detection, WST-8); type: biochemical; conditions: 10 nM, residual NADPH detected with WST-8, read-out: Test Example 1 IDH1 R132C IC50
[1] = test system: HT-1080 cells expressing IDH1R132C; assay: 2-HG production inhibitory activity using HT1080 cell; type: cell-based, human; conditions: Homo sapiens, HT-1080; 2-HG production, HT1080 cells; read-out: Test Example 3 IC50
Method: Then, 100 μL of growth medium B was added to each well, further 25 μL of a solution of each compound diluted to a predetermined concentration with growth medium B was added to each well, and the cells were incubated at 37° C. for 2 days under 5% CO2. […] Then, 150 μL of ultrapure water was further added to each well, and the mixture was stirred by pipetting and stored at −20° C.
The preserved solutions were thawed at room temperature.

[2] = test system: HT1080 xenografted mice (IDH1R132C); assay: 2-HG production inhibitory activity using HT1080 xenografted mice; type: in vivo, mouse; conditions: Mus musculus, HT-1080, po, 6 h, 2-HG production, HT1080 xenografted mice; read-out: Test Example 5 Ratio (%)
Procedure, shortened: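 Mice bearing HT1080 tumors received 75 mg/kg compound by oral gavage twice a day, three doses in total, at 10 mL/kg; vehicle-dosed mice were negative controls. Tumors were collected 6 h after the final dose, frozen, homogenized in methanol and centrifuged, and 2-HG was measured in the extracts.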

Chain of IDH1R132C (O75874 whole entry R132C): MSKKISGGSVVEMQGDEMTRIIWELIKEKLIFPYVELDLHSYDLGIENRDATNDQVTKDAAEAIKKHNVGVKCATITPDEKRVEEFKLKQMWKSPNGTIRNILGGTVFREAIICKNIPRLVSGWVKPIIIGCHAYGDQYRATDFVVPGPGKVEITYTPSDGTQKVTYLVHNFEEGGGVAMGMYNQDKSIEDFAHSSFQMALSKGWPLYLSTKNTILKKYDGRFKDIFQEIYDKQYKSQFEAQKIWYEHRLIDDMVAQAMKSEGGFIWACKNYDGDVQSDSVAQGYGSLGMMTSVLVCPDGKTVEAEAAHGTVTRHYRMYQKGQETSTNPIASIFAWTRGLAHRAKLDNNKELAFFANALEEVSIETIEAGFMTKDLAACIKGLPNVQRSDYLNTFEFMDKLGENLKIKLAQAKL

IC50 (IDH1R132C) [nM]	IC50 [1] [nM]	SMILES	response vs control in vivo at 75 mg/kg [2] [%]
154	95	CC(C)(F)c1onc(-c2c(Cl)cc(Cl)cc2Cl)c1C(=O)n1cc2c3c(c(F)ccc31)/C(=C/C(=O)O)CC2 [Example 67, (2E)-[6-Fluoro-1-{[5-(2-fluoropropan-2-yl)-3-(2,4,6-trichlorophenyl)-1,2-oxazol-4-yl]carbonyl}-3,4-dihydrobenzo[cd]indol-5(1H)-ylidene]ethanoic acid]	27
125	32	Cc1cn(C(=O)c2c(-c3c(Cl)cc(Br)cc3Cl)noc2C(C)(C)F)c2cccc(/C=C/C(=O)O)c12 [Example 68, (2E)-3-(1-{[3-(4-Bromo-2,6-dichlorophenyl)-5-(2-fluoropropan-2-yl)-1,2-oxazol-4-yl]carbonyl}-3-methyl-1H-indol-4-yl)prop-2-enoic acid]	47
168	197	CC(C)(F)c1onc(-c2ccc(Cl)cc2Cl)c1C(=O)n1cc2c3c(cccc31)/C(=C/C(=O)O)CC2 [Example 69, (2E)-[1-{[3-(2,4-Dichlorophenyl)-5-(2-fluoropropan-2-yl)-1,2-oxazol-4-yl]carbonyl}-3,4-dihydrobenzo[cd]indol-5(1H)-ylidene]ethanoic acid]	20
153	71	Cc1cn(C(=O)c2c(-c3c(Cl)cc(C4CC4)cc3Cl)noc2C(C)(C)F)c2cccc(/C=C/C(=O)O)c12 [Example 70, (2E)-3-(1-{[3-(2,6-Dichloro-4-cyclopropylphenyl)-5-(2-fluoropropan-2-yl)-1,2-oxazol-4-yl]carbonyl}-3-methyl-1H-indol-4-yl)prop-2-enoic acid]	41
201	59	CC(C)(C)c1onc(-c2c(Cl)cc(Cl)cc2Cl)c1C(=O)n1cc(C(F)F)c2c(/C=C/C(=O)O)cccc21 [Example 72, (2E)-3-(1-{[5-(tert-Butyl)-3-(2,4,6-trichlorophenyl)-1,2-oxazol-4-yl]carbonyl}-3-(difluoromethyl)-1H-indol-4-yl)prop-2-enoic acid]	46
175	118	COC1(c2onc(-c3c(Cl)cc(Cl)cc3Cl)c2C(=O)n2ccc3c(/C=C/C(=O)O)cccc32)CCC1 [Example 74, (2E)-3-(1-{[5-(1-Methoxycyclobutyl)-3-(2,4,6-trichlorophenyl)-1,2-oxazol-4-yl]carbonyl}-1H-indol-4-yl)prop-2-enoic acid]	20
161	35	COC1(c2onc(-c3c(Cl)cc(Cl)cc3Cl)c2C(=O)n2cc(C)c3c(/C=C/C(=O)O)cccc32)CCC1 [Example 79, (2E)-3-(1-{[5-(1-Methoxycyclobutyl)-3-(2,4,6-trichlorophenyl)-1,2-oxazol-4-yl]carbonyl}-3-methyl-1H-indol-4-yl)prop-2-enoic acid]	15
163	31	Cc1cn(C(=O)c2c(-c3c(Cl)cc(Cl)cc3Cl)noc2C2(N(C)C)CCC2)c2cccc(/C=C/C(=O)O)c12 [Example 81, (2E)-3-(1-{[5-[1-(Dimethylamino)cyclobutyl]-3-(2,4,6-trichlorophenyl)-1,2-oxazol-4-yl]carbonyl}-3-methyl-1H-indol-4-yl)prop-2-enoic acid]	15
87	33	CNC1(c2onc(-c3c(Cl)cc(Cl)cc3Cl)c2C(=O)n2cc(C)c3c(/C=C/C(=O)O)cccc32)CCC1 [Example 83, (2E)-3-(3-Methyl-1-{[5-[1-(methylamino)cyclobutyl]-3-(2,4,6-trichlorophenyl)-1,2-oxazol-4-yl]carbonyl}-1H-indol-4-yl)prop-2-enoic acid]	23
145	71	C=CC(=O)N(C)C1(c2onc(-c3c(Cl)cc(Cl)cc3Cl)c2C(=O)n2cc(C)c3c(/C=C/C(=O)O)cccc32)CCC1 [Example 87, (2E)-3-(1-{[5-{1-[Acryloyl(methyl)amino]cyclobutyl}-3-(2,4,6-trichlorophenyl)-1,2-oxazol-4-yl]carbonyl}-3-methyl-1H-indol-4-yl)prop-2-enoic acid]	68
159	3	C=CC(=O)N1CCC(c2onc(-c3c(Cl)cc(Cl)cc3Cl)c2C(=O)n2cc3c4c(cccc42)/C(=C/C(=O)O)CC3)CC1 [Example 94, (2E)-[1-{[5-(1-Acryloylpiperidin-4-yl)-3-(2,4,6-trichlorophenyl)-1,2-oxazol-4-yl]carbonyl}-3,4-dihydrobenzo[cd]indol-5(1H)-ylidene]ethanoic acid]	1
67	89	C=CC(=O)N1CC(c2onc(-c3c(Cl)cc(Cl)cc3Cl)c2C(=O)n2ccc3c(/C=C/C(=O)O)cccc32)C1 [Example 95]	44
272	34	C=CC(=O)N1CCC(c2onc(-c3c(Cl)cc(Cl)cc3Cl)c2C(=O)n2ccc3c(/C=C/C(=O)O)cccc32)CC1 [Example 99]	15
189	28	C#CC(=O)N1CCC(c2onc(-c3c(Cl)cc(Cl)cc3Cl)c2C(=O)n2ccc3c(/C=C/C(=O)O)cccc32)CC1 [Example 100]	75
114	506	C=CS(=O)(=O)N1CCC(c2onc(-c3c(Cl)cc(Cl)cc3Cl)c2C(=O)n2ccc3c(/C=C/C(=O)O)cccc32)CC1 [Example 103]	90
93	7	C=CC(=O)N1CCC(c2onc(-c3c(Cl)cc(Cl)cc3Cl)c2C(=O)n2cc(C)c3c(/C=C/C(=O)O)cccc32)CC1 [Example 104]	8
567	32	C=CC(=O)N1CCC(c2onc(-c3c(Cl)cc(Cl)cc3Cl)c2C(=O)n2ccc3c(C4CC4C(=O)O)cccc32)CC1 (stereo not drawn) [Example 105]	27
149	23	C=CC(=O)N1CCC(c2onc(-c3ccc(Cl)cc3Cl)c2C(=O)n2cc(C)c3c(/C=C/C(=O)O)cccc32)CC1 [Example 106]	12
149	38	C=CC(=O)N1CCC(c2onc(-c3c(Cl)cccc3Cl)c2C(=O)n2cc(C)c3c(/C=C/C(=O)O)cccc32)CC1 [Example 108]	58
243	45	C=CC(=O)N1CCC(c2onc(-c3c(C)cc(C)cc3C)c2C(=O)n2ccc3c(/C=C/C(=O)O)cccc32)CC1 [Example 109]	23
316	48	C=CC(=O)N1CCC(c2onc(-c3c(C)cc(Cl)cc3C)c2C(=O)n2ccc3c(/C=C/C(=O)O)cccc32)CC1 [Example 110]	52
115	12	C=CC(=O)N1CCC(c2onc(-c3c(Cl)cc(F)cc3Cl)c2C(=O)n2cc(C)c3c(/C=C/C(=O)O)cccc32)CC1 [Example 112]	15
104	2	C=CC(=O)N1CCC(C)(c2onc(-c3c(Cl)cc(Cl)cc3Cl)c2C(=O)n2cc(C)c3c(/C=C/C(=O)O)cccc32)CC1 [Example 113]	13
